Reference: ChEMBL document CHEMBL1137272, “Discovery and synthesis of tetrahydroindolone derived semicarbazones as selective Kv1.5 blockers” (Bioorg Med Chem Lett, 2006)
pIC50: −log10 of the molar value. The source made the active and inactive calls. No cut-off for these calls is given here.

How the values were obtained:
[1] = biological target: T1, Potassium voltage-gated channel subfamily A member 5 (Homo sapiens, UniProt P22460); assay: Inhibition of Kv1.5 expressed in LTK- cells by whole cell patch clamp assay at 1uM; type: functional, cell-based
T1 sequence (P22460 whole entry): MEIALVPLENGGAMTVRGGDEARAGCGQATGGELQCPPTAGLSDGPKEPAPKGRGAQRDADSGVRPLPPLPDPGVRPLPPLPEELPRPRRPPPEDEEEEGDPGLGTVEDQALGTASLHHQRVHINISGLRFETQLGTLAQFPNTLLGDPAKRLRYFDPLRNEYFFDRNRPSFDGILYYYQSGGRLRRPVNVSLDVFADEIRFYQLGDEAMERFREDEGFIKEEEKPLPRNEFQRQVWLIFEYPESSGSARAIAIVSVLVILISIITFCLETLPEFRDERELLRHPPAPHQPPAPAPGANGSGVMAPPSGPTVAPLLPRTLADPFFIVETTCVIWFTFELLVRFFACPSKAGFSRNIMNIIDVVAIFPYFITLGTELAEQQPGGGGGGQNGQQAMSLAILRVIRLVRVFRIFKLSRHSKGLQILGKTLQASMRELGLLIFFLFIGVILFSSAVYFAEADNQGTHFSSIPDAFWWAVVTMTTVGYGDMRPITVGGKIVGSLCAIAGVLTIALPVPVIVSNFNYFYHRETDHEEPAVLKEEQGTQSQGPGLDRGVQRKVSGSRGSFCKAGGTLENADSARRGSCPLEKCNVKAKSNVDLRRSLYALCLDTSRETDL

[2] = biological target: T1, Potassium voltage-gated channel subfamily A member 5; assay: Inhibition of Kv1.5 expressed in LTK- cells by whole cell patch clamp assay; type: functional, cell-based
Sus scrofa [3] = assay: Prolonged right atrial refractory period in pigs after 15 minute iv infusion at 30mg/kg; type: functional, Cardiac atrium
Sus scrofa [4] = assay: Prolonged ventricular refractory period in pigs after 15 minute iv infusion at 30mg/kg; type: functional, organism-based; details: Cardiac ventricle
Sus scrofa [5] = assay: Prolonged right atrial refractory period in pigs after 15 minute iv infusion at 10mg/kg; type: functional, Cardiac atrium
Sus scrofa [6] = assay: Prolonged ventricular refractory period in pigs after 15 minute iv infusion at 10mg/kg; type: functional, organism-based; details: Cardiac ventricle
[7] = biological target: Voltage-gated L-type calcium channel (Homo sapiens, UniProt Q13936+Q13698+Q01668+O60840); assay: Inhibition of L-type calcium channel by FLIPR assay; type: functional

Compound | inhibition [1] | further results
CCc1c(C)[nH]c2c1/C(=N/NC(=S)Nc1cccc(C)c1)CCC2 | 64% | 
CCc1c(C)[nH]c2c1/C(=N/N(C)C(=O)Nc1ccc(C(C)=O)cc1)CCC2 | 86% | 
CCc1c(C)[nH]c2c1/C(=N/NC(=S)Nc1ccc(Cl)cc1)CCC2 | 71% | 
CCc1[nH]c2c(c1CC)/C(=N/NC(=O)Nc1ccccc1)CCC2 | 56% | 
CCc1c(C)[nH]c2c1/C(=N/NC(=S)Nc1cccc(C(F)(F)F)c1)CCC2 | 91% | pIC50 [2]: 6.70
CCc1[nH]c2c(c1CC)/C(=N/NC(=O)Nc1ccc(Cl)cc1)CCC2 | 60% | 
CCc1c(C)[nH]c2c1/C(=N/NC(=O)Nc1cccc(C3CCCN3)c1)CCC2 (stereo not given) | 60% | pIC50 [2]: 6.12
O=C(N/N=C1\CCCC2=C1C1CCCCC1N2)Nc1ccccc1 (stereo not given) | 20% | 
CCc1c2c(n(C)c1CC)CCC/C2=N\N(C)C(=O)Nc1ccc(Cl)cc1 | 90% | 
CCc1[nH]c2c(c1CC)/C(=N/NC(=O)Nc1cccc(SC)c1)CCC2 | 67% | 
CCc1[nH]c2c(c1CC)/C(=N/NC(=O)Nc1ccc(SC)cc1)CCC2 | 56% | 
Cc1[nH]c2c(c1C(C)C)/C(=N/NC(=O)Nc1ccc(Cl)cc1)CCC2 | inactive | 
CCc1c(C)[nH]c2c1/C(=N/N(C)C(=O)Nc1cccc(Cl)c1)CCC2 | 89% | 
CCc1c(C)[nH]c2c1/C(=N/NC(=O)Nc1ccc(Cl)cc1)CCC2 | 65% | pIC50 [2]: 6.36
CCc1c(C)[nH]c2c1/C(=N/N(C)C(=O)Nc1ccc(SC)cc1)CCC2 | 78% | 
CCc1[nH]c2c(c1CC)/C(=N/NC(=O)Nc1ccc(OC)cc1)CCC2 | 85% | 

Compound | inhibition [1] | further results
CCc1c(C)[nH]c2c1/C(=N/N(C)C(=O)Nc1ccccc1)CCC2 | 65% | 
CCc1c(C)[nH]c2c1/C(=N/N(C)C(=O)Nc1ccc(Cl)cc1)CCC2 | 93% | Prolonged ARP (Sus scrofa [3]): 18%; pIC50 [2]: 6.89; Prolonged VRP (Sus scrofa [4]): inactive
CCc1c(C)[nH]c2c1/C(=N/NC(=O)Nc1ccccc1)CCC2 | 85% | Prolonged ARP (Sus scrofa [5]): 28%; pIC50 [2]: 6.89; Prolonged VRP (Sus scrofa [6]): inactive; IC50 [7]: > 30 µM
Cc1[nH]c2c(c1C)/C(=N/NC(=O)Nc1ccc(C(F)(F)F)cc1)CCC2 | 63% | 
CCc1c2c(n(C)c1CC)CCC/C2=N\N(C)C(=O)Nc1ccc(C(C)=O)cc1 | 90% | pIC50 [2]: 6.43
Cc1[nH]c2c(c1C)/C(=N/NC(=O)Nc1ccc(Cl)cc1)CCC2 | 67% | pIC50 [2]: 6.43
CCc1c(C)[nH]c2c1/C(=N/NC(=S)Nc1ccc(C(F)(F)F)cc1)CCC2 | 52% | 
O=C(N/N=C1\CCCc2[nH]ccc21)Nc1ccccc1 | inactive | 
CCc1c2c(n(C)c1CC)CCC/C2=N\N(C)C(=O)Nc1ccccc1 | 84% | 
Cc1[nH]c2c(c1C)/C(=N/NC(=O)Nc1ccccc1)CCC2 | 37% | 
CCc1c(C)[nH]c2c1/C(=N/NC(=O)Nc1ccc(C)cc1)CCC2 | 50% | 
Cc1[nH]c2c(c1C(C)C)/C(=N/NC(=O)Nc1ccccc1)CCC2 | inactive | 
CCc1c(C)[nH]c2c1/C(=N/NC(=O)Nc1ccc(SC)cc1)CCC2 | 80% | pIC50 [2]: 6.55
CCc1c(C)[nH]c2c1/C(=N/NC(=S)Nc1cccc(Cl)c1)CCC2 | 78% | 
O=C(N/N=C1\CCCc2[nH]ccc21)Nc1ccc(Cl)cc1 | 28% | pIC50 [2]: 5.25
